Measured values from patent publication US11529323B2 (priority 2017, dated 2022).

What was measured:
Assay type in all cases: in vivo, mouse
[1] = tested on: gastrocnemius transcriptome; experiment: RNA-seq of gastrocnemius muscles, Study 1; conditions: for expression of Wnt5a, Fzd1, β-catenin (CTNNB1) and GSK3B: gastrocnemius of tumor-bearing mice, AR-42: with the exception of β-catenin
Description: For each sample, 600 ng total RNA (Bioanalyzer RIN values>7) was used to generate polyA enriched RNA-seq libraries with the NEBNext Ultra II Directional RNA Library Prep Kit (New England Biolabs, Inc., catolog number E7760) and sequenced as PE-150 reads on HiSeq 4000 (Illumina Inc, San Diego, Calif.). Raw fastq files were adaptor trimmed using Trimmomatic (Bolger, A. M., et al. Bioinformatics 2014 30(15):2114-2120), aligned to the mm10 genome with Subread (Liao Y, et al. Nucleic Acids Res. 2013 41(10):e108), and marked for duplicate reads with Picard v2.3.0. Samtools (Li H., et al. Bioinformatics 2014 25:2078-9) was used to calculate post-alignment quality control metrics (Table 3). A gene-based counts matrix was generated with the summarizeOverlaps function of GenomicAlignments (Lawrence M, et al. PLoS Comput Biol 9(8):e1003118) and analyzed with DESeq2 (Love, M. I., et al. Genome biology 15(12):550) for genes differentially expressed among groups. GSEAPreranked analyses (Subramanian A, et al. Proc Natl Acad Sci USA. 2005 102:15545-15550) were performed using the signed log 10 p-values for each gene to test for significant enrichment of gene sets in the ‘TF Targets’ file downloaded from ge-lab.org/#/data. Any duplication in signed log 10 p-values was removed prior to running the GSEAPreranked analyses by adding a small value sampled at random from a normal distribution with mean zero and standard deviation 0.00001 to each duplicated value. GSEAPreranked analyses were performed in classic mode on gene sets with a minimum and maximum of 5 and 5000 genes in the gene set, respectively, and were followed by leading-edge analyses for selected comparison and gene set combinations. Heatmaps for RNA-seq data were generated with pheatmap using z-scores calculated from log count-per-million values obtained with the ‘cpm’ function in EdgeR (Robinson, M. D., et al. Bioinformatics 2010 26:139-140).

[2] = tested on: atrogin-1 (FBXO32), MuRF-1 (TRIM63), CEBPO (CEBPD); experiment: qRT-PCR of atrophy-related genes in gastrocnemius muscle, Study 1; conditions: relative to tumor-bearing controls, GTx-024 15 mg/kg, AR-42 10 mg/kg
Description: FIGS. 3A-B show gene expression of multiple cachexia-associated markers in gastrocnemius muscles of individual animals from Study 1 (n=5-6 per group). Expression was determined by qRT-PCR (Geometric Mean±Geometric STD). FIG. 3A contains bar graphs showing genes associated with muscle atrophy. FIG. 3B is a bar graph showing androgen receptor (AR) mRNA expression. […] Statistics all panels: *p<0.05, ***p<0.001, ****p<0.0001 versus tumor-bearing vehicle-treated controls, Dunnett's multiple comparison test. CEBPO, n=4, insufficient sample to analyze all tumor-bearing GTx-024-treated animals.
qRT-PCR: To generate muscle tissue RNA, 15 mg of gastrocnemius muscle tissue was lysed in 10 volumes of lysis buffer per tissue mass in prefilled 2.0 ml tubes with 3.0 mm zirconium beads (MIDSCl; St. Louis, Mo.). Tubes were loaded into Beadblaster™ 24 (MIDSCl; St. Louis, Mo.) and centrifuged for 5 cycles of 5 seconds with a 30 second pause between cycles. Lysate was collected and RNA was isolated using the mirVana™ miRNA Isolation Kit, with phenol (ThermoFisher; Waltham, Mass.). Samples were treated with DNA-free DNA Removal Kit to eliminate any DNA contamination (Invitrogen, Carlsbad, Calif.). […] As transformed expression data are not normally distributed, statistical differences between treatment groups were determined by one-way ANOVA followed by Dunnett's test on raw delta Ct values.

serum cytokines = experiment: Serum cytokine panel, multiplex analysis, Study 2, C-26 tumor-bearing mice; conditions: GTx-024 15 mg/kg, AR-42 10 mg/kg p.o. qd, Day 17 sacrifice, mean ± SD
Description: These studies were performed as previously described (Tseng Y C, et al. J Natl Cancer Inst. 2015 107(12):djv274) with modifications. Tumors were established in the right flank by subcutaneous injection of C-26 cells (0.5×10^6 cells in 0.1 mL). […] TFM-4AS-1 (a potent experimental SARM), dihydrotestosterone (DHT) and vehicles were administered by subcutaneous injection.
This confirmatory study was performed exactly as Study 1 with expanded animal numbers. Tumor-free control groups were maintained at 6 animals each, whereas 10 animals were included in each of the tumor-bearing groups. […] Grip strength was measured on study days 0 (baseline) and 16. Due to rapid model progression, this study was terminated after only 12 days of treatment.
Serum cytokine panel analyses were performed by a commercial vendor (Eve Technologies, Calgary, Canada) as previously described. Serum interleukin-6 (IL-6) was measured using a commercial ELISA kit (R&D Systems, Minneapolis, Minn., USA) according to the manufacturer's instructions.

Structure (SMILES) | expression of Wnt5a, Fzd1, β-catenin (CTNNB1) and GSK3B [1] | atrogin-1, MuRF-1, or CEBPO expression [2] | Eotaxin, serum (serum cytokines) [pg/mL] | G-CSF, serum (serum cytokines) [pg/mL] | GM-CSF, serum (serum cytokines) [pg/mL] | IFNg, serum (serum cytokines) [pg/mL] | IL12 (p40), serum (serum cytokines) [pg/mL] | IL-1a, serum (serum cytokines) [pg/mL] | IL-1b, serum (serum cytokines) [pg/mL] | IL-2, serum (serum cytokines) [pg/mL] | IL-3, serum (serum cytokines) [pg/mL] | IL-4, serum (serum cytokines) [pg/mL] | IL-5, serum (serum cytokines) [pg/mL] | IL-6, serum (serum cytokines) [pg/mL] | IL-7, serum (serum cytokines) [pg/mL] | IL-9, serum (serum cytokines) [pg/mL] | IL-10, serum (serum cytokines) [pg/mL] | IL-12 (p70), serum (serum cytokines) [pg/mL] | IL-13, serum (serum cytokines) [pg/mL] | IL-15, serum (serum cytokines) [pg/mL] | also measured
CC(C)[C@H](C(=O)Nc1ccc(C(=O)NO)cc1)c1ccccc1 [AR-42, (S)—N-hydroxy-4-(3-methyl-2-phenylbutanamido)benzamide] | effectively reversed tumor-induced regulation | significantly reduced the expression of each atrogene | 735.73 ± 110.62 | 2782.18 ± 2191.30 | 18.70 ± 3.77 | 4.69 ± 1.11 | 31.22 ± 24.43 | 143.31 ± 157.59 | 20.48 ± 6.25 | 19.37 ± 6.07 | 0.72 ± 0.83 | 0.32 ± 0.19 | 5.50 ± 4.41 | 256.59 ± 183.1 | 41.51 ± 99.92 | 11.28 ± 7.68 | 15.13 ± 11.16 | 10.16 ± 6.16 | 34.19 ± 8.29 | 51.57 ± 19.99 | IL-6 receptor (IL-6RA) mRNA expression in gastrocnemius ([1]; cachectic mice): restore non-cachectic control levels; IL-17, serum (serum cytokines): 1.82 ± 0.85 pg/mL; IP-10, serum (serum cytokines): 215.35 ± 52.46 pg/mL; KC, serum (serum cytokines): 363.38 ± 200.65 pg/mL; LIF, serum (serum cytokines): 15.79 ± 5.15 pg/mL; LIX, serum (serum cytokines): 2515.38 ± 3119.67 pg/mL; M-CSF, serum (serum cytokines): 20.21 ± 4.63 pg/mL; MCP-1, serum (serum cytokines): 91.18 ± 40.23 pg/mL; MIG, serum (serum cytokines): 55.17 ± 10.58 pg/mL; MIP-1a, serum (serum cytokines): 63.79 ± 19.14 pg/mL; MIP-1b, serum (serum cytokines): 76.41 ± 12.81 pg/mL; MIP-2, serum (serum cytokines): 146.34 ± 32.60 pg/mL; RANTES, serum (serum cytokines): 19.70 ± 4.31 pg/mL; TNFa, serum (serum cytokines): 12.77 ± 4.55 pg/mL; VEGF, serum (serum cytokines): 1.04 ± 0.24 pg/mL
C[C@](O)(COc1ccc(C#N)cc1)C(=O)Nc1ccc(C#N)c(C(F)(F)F)c1 [GTx-024, (2S)-3-(4-cyanophenoxy)-N-(4-cyano-3-(trifluoromethyl)phenyl)-2-hydroxy-2-methylpropanamide] | failed to restore expression to tumor-free control levels | no significant impact | 876.82 ± 100.53 | 2446.63 ± 1625.70 | 17.35 ± 4.33 | 4.12 ± 2.09 | 27.61 ± 27.95 | 167.80 ± 156.50 | 12.12 ± 5.54 | 15.62 ± 3.41 | 0.92 ± 0.56 | 0.23 ± 0.14 | 1.11 ± 0.66 | 397.54 ± 341.43 | 11.19 ± 8.17 | 8.69 ± 9.43 | 14.15 ± 18.01 | 12.62 ± 7.71 | 31.63 ± 8.22 | 97.32 ± 39.18 | IL-17, serum (serum cytokines): 1.75 ± 1.28 pg/mL; IP-10, serum (serum cytokines): 154.76 ± 17.98 pg/mL; KC, serum (serum cytokines): 288.89 ± 154.46 pg/mL; LIF, serum (serum cytokines): 45.26 ± 21.57 pg/mL; LIX, serum (serum cytokines): 5234.39 ± 4771.34 pg/mL; M-CSF, serum (serum cytokines): 22.23 ± 9.45 pg/mL; MCP-1, serum (serum cytokines): 88.07 ± 24.41 pg/mL; MIG, serum (serum cytokines): 39.33 ± 12.88 pg/mL; MIP-1a, serum (serum cytokines): 108.03 ± 27.91 pg/mL; MIP-1b, serum (serum cytokines): 81.67 ± 11.63 pg/mL; MIP-2, serum (serum cytokines): 147.63 ± 59.81 pg/mL; RANTES, serum (serum cytokines): 20.67 ± 4.57 pg/mL; TNFa, serum (serum cytokines): 12.71 ± 5.12 pg/mL; VEGF, serum (serum cytokines): 0.87 ± 0.29 pg/mL
